Measurements taken from patent US20050222198A1, “Imidazo[4,5-c]pyridine compounds and methods of antiviral treatment” (priority 2003, published 2005).

Key:
Format in all cases: cell-based
[1] = HCV CC50 assay protocol (MTT); details: HCV replicon cells
Protocol: (§1) • HCV Replicon Media • DMEM w/High Glucose (or MEM) • 1×Glutamine • 1× Sodium Pyruvate • 10% Heat Inactivated FBS • 1× Antibiotics Cell Culture Preparation • 1. Unthaw frozen stock in 10-12 mls of Media • 2. Allow cells to attach before adding G418 (4-6 hrs) • 3. Add G418 for a final concentration of 200 ug/ml (higher amounts are possible but cells grow slowly) • 4. Split cells 1:4 to 1:6 for optimal growth • 5. In-house replicon seems to maintain Luciferase signal for ˜20 passages HCV Replicon Assay • 1 Dilute compounds in 100 uL of HCV Replicon Media (without G418). If compounds are diluted in DMSO add DMSO to media (Final DMSO concentration should be <1%) • 2. Once cells have reached 80-90% confluency, trypsinize with 1×Trypsin • 3. […] These cells tend to clump if over trypsinized • 4. For 96 well format add 6,000-8,000 cells per well (G418 is withheld during compound testing) • 5. Incubate for 3 days at 37° C. Cells should be very close to confluent. • 6. Remove media and add 200 μL of a 0.2 mg/mL MTT solution prepared in media. • 7. Incubate for 1.5 hours to 2 hours. • 8. Remove media and add 150 μL of DMSO • 9. Mix and incubate for 5 mins at room temperature • 10. Read plate at 530 nm in the plate reader. Results

[2] = tested on: HCV replicon; test: Anti-HCV assay/Replicon assay 2 (luciferase); details: Hepatitis C virus, 72 h, 3 days
Protocol: • HCV Replicon Media • DMEM w/High Glucose (or MEM) • 1× Glutamine • 1× Sodium Pyruvate • 10% Heat Inactivated FBS • 1× Antibiotics Cell Culture Preparation • 1. Unthaw frozen stock in 10-12 mls of Media • 2. Allow cells to attach before adding G418 (4-6 hrs) • 3. Add G418 for a final concentration of 200 ug/mL (higher amounts are possible but cells grow slowly) • 4. Split cells 1:4 to 1:6 for optimal growth • 5. In-house replicon seems to maintain Luciferase signal for ˜20 passages HCV Replicon Assay • 1. Dilute compounds in 100 uL of HCV Replicon Media (without G418). If compounds are diluted in DMSO add DMSO to media (Final DMSO concentration should be <1%) • 2. Once cells have reached 80-90% confluency, trypsinize with 1× Trypsin • 3. […] These cells tend to clump if over trypsinized • 4. For 96 well format add 6,000-8,000 cells per well (G418 is withheld during compound testing) • 5. Incubate for 3 days at 37° C. Cells should be very close to confluent. • 6. Remove media and wash cells with 1×PBS • 7. Remove PBS and add 100 μL of 1×Promega Lysis Buffer • 8. Incubate cells at Room Temperature for 5-20 minutes • 9. Add 100 μL of room temperature Luciferase Substrate Solution (Promega) to Microfluor Black Plate (VWR) • 10. Thoroughly Mix Cell lysate (pipet up and down) before adding to Luciferase substrate • 11. Add 75 μL of lysate to the Luciferase substrate solution • 12. Read Plate On Top Count (FusionLucB program˜5 second read) • 13. Left over lysate can be frozen and used for later analysis Determination of Cytostatic Effect on MDBK Cells

[3] = tested on: HCV replicon cells; test: HCV CC50 assay protocol (MTT); details: 3 days
Protocol: as §1

| SMILES | CC50 at 3 days [1] [µM] | EC50 [2] [µM] | CC50 [3] [µM] |
| --- | --- | --- | --- |
| Fc1ccc(-c2ccc(Cn3ccc4nc(-c5cccc(F)c5F)nc-4c3)cc2)c(F)c1 [Example 4, 5-(2,4-difluoro-biphenyl)methyl-2-(2,3-difluorophenyl)-5H-imidazo[4,5-c]pyridine] | 19 | 0.01 | – |
| Fc1cccc(-c2nc3ccn(Cc4ccc(OC(F)(F)F)cc4)cc-3n2)c1F [Example 3A, 5-(4-(trifluoromethoxy)benzyl)-2-(2,3-difluorophenyl)-5H-imidazo[4,5-c]pyridine] | 34 | 0.02 | – |
| Fc1ccccc1-c1nc2ccn(Cc3cc(-c4ccc(Cl)cc4)no3)cc-2n1 [Example 2, 5((3-(4-chlorophenyl)isoxazol-5-yl)methyl)-2-(2-fluorophenyl)-5H-imidazo[4,5-c]pyridine] | 26 | 0.01 | – |
| Fc1cccc(-c2nc3ccn(Cc4cc(-c5ccc(Cl)cc5)no4)cc-3n2)c1F [Example 5, 5-((3-(4-chlorophenyl)isoxazol-5-yl)methyl)-2-(2,3-difluorophenyl)-5H-imidazo[4,5-c]pyridine] | 10.8 | 0.0039 | 13.4 |
